The values below come from patent US12076331B2, “Inositol derivatives for use in pathological crystallization” (ETH Zurich, priority 2015, dated 2024).

In series [1] the test system is RPTEC/TERT 1 human proximal tubule cells. Description: Imaging assay of CaP adhesion/deposition and cellular changes on RPTEC monolayers. Type of series: cell-based. The text has this: (A) Heatmap and hierarchical clustering of extracted image features. (B) Selected single features describing cellular changes upon increasing (OEG2)2-IP4 concentrations are depicted. Total cell count, dead cell count, single cell area and single cell solidity, a measure of cell compactness, are shown. (C) Selected single features describing changes in the CaP deposition and membrane pattern upon increasing (OEG2)2-IP4 concentrations are depicted. The total area of the binary calcein staining, colorimetric quantification of calcium content extracted from the monolayer, the maximum intensity of the calcein fluorescence, structural similarity index metric (SSIM) and the correlation of the CellMask channel image are shown. (D) Example brightfield, calcein, CellMask and EthD channel images and two zoomed-in regions of interests (ROI) of RPTEC treated with 13 μM (OEG2)2-IP4 are shown. Mean scaled values per individual experiment are plotted (N=3). Pos.ctrl presents treatment with 5/7 mM Ca/P, neg.ctrl presents medium without Ca/P spiking (=1/1 mM Ca/P present in normal cell medium). Mean of three individual experiments and SD is plotted as grey horizontal and vertical line respectively, one-way ANOVA with Dunnet's multiple comparison between each concentration to pos. ctrl was performed (* p<0.01).
RPTEC/TERT 1 monolayers at confluence were treated with medium spiked with 7 mM disodium phosphate, 5 mM calcium chloride and compound and were incubated for 24 h. The amount of CaP deposits and the extent of cell injury were detected by calcein and EthD staining, respectively. Fluorescence images were quantified using Matlab. Quantification of the area covered with CaP deposition on RPTEC monolayers with (A) OEG2-IP5, (B) OEG11-IP5, (C) (OEG2)2-IP4, and (D) OEG8-(IP5)2 treatment. (N=3, mean+SD, one-way ANOVA with Dunnett's multiple comparison, * p<0.05, ** p<0.01, *** p<0.001).
RPTEC/TERT 1 human proximal tubule cells (RPTEC) were cultured in T75 tissue culture flasks using ProxUp basal medium mixed with ProxUp supplements at 37° C. and 5% CO2 according to manufacturer's recommendations. Cells were used up to passage 30 and regularly tested for Mycoplasma infections. For experiments, RPTEC were cultured in 24-well plates at a seeding density of 150′000 cells/cm^2. Cell viability assessment and cell counting before seeding was performed using an automated cell counter (BioRad TC 20, Hercules, CA, USA).
For the comparison of selected IP6 analogues, ProxUp basal medium was prepared with the selected inhibitor and added to each well. Then, CaP precipitation was induced by direct addition of first, phosphate and second, calcium. Final concentrations of 7 mM phosphate and 5 mM calcium were used. Cells were incubated for 24 h at 37° C. and 5% CO2. Spiked medium was removed, and cells were washed twice with PBS before staining.
For staining, ProxUp basal medium was mixed with calcein (500 nM final concentration), EthD (6 μM final concentration), CellMask stain ([…]) and Hoechst 33342. Staining mixture was added to RPTEC and cells were incubated for 30 min in the dark at 37° C. and 5% CO2. Staining solution was removed, cells were washed with PBS once and ProxUp basal medium was added. Cells were immediately imaged after staining. Images were obtained by epifluorescence microscopy at 37° C., using a Leica CTR6000 microscope. For quantification 3 wells/condition were prepared and 3 images/well were taken. For preliminary adhesion experiments images were taken with a 10× objective, for the imaging assay 20× objective images were taken.
Multichannel images were saved as individual channel images in 8-bit tiff format. For analysis Hoechst channel images were thresholded using the triangle threshold. Touching nuclei of the binary image were further segmented using the watershed algorithm with the distance transform of the binary image as input and local maxima thereof as seeds. […]

Series [2] shares this test system. Description: CaP-induced CaOx crystallization on RPTEC monolayers. The format is cell-based. Conditions: CaP-induced model, 1.2 mM oxalate, 4 h. On the procedure: For the assessment of CaP-induced CaOx crystallization, after 24 h of incubation, Ca/P spiked medium was removed, and cells were washed twice with PBS. Subsequently, medium containing 1.2 mM oxalate and compound was added to each well. After 4 h of incubation at 37° C. and 5% CO2 treatment was removed, and cells washed once with PBS before staining.
For staining, ProxUp basal medium was mixed with calcein (500 nM final concentration), EthD (6 μM final concentration), CellMask stain ([…]) and Hoechst 33342. Staining mixture was added to RPTEC and cells were incubated for 30 min in the dark at 37° C. and 5% CO2. Staining solution was removed, cells were washed with PBS once and ProxUp basal medium was added. Cells were immediately imaged after staining. […] For quantification 3 wells/condition were prepared and 3 images/well were taken. […]
To allow rapid profiling of molecules for their effects on diverse kidney calcification processes, the inventors developed a cell-based assay that allowed the monitoring of CaP deposition, as well as cellular changes associated with it. Therefore, the inventors utilized monolayers of renal proximal tubular cells (RPTEC) stained with various dyes to quantify calcification and cell morphology changes (FIG. 3). […] CaP deposits were detected via calcein staining (FIG. 3B). […]

The conditions of series [3]: reported, Schantl et al. 2020; cited from earlier work.
Where [4] appears, read: 6-50 μM, 5/7 mM Ca/P, compared to the positive ctrl.
The mark [5] stands for this setting: RPTEC, 7 mM phosphate, 5 mM calcium, 24 h.

Structures are written as SMILES.

Take `COCCOCCO[C@@H]1C(OP(=O)(O)O)[C@H](OCCOCCOC)[C@@H](OP(=O)(O)O)C(OP(=O)(O)O)[C@H]1OP(=O)(O)O` (stereo partly shown) [(OEG2)2-IP4]: in series [1] (setting [4]), the “number of dead cells” value is recorded as “dose-dependently reduced”, the single cell area entry was “dose-dependently reduced”, the single cell solidity entry is on record as “increased” and the “total cell count/field of view” value is on record as “increased”. Also, the “total CaP area” value in series [1] (6 and 13 μM, 5/7 mM Ca/P, compared to the positive ctrl) was “reduction”. In addition, in series [1] (setting [5]), the “concentration achieving complete inhibition of CaP adhesion” value was determined as 50 µM and the “concentration down to which CaP adhesion was drastically reduced” value was found to be 12.5 µM. For the same molecule, in series [2], the “CaP-induced CaOx crystallization” value is recorded as “reduced” and the “concentration at which COD was almost entirely abolished” value was determined as 100 µM. Besides, in series [3], the pharmacokinetic profile result is “favorable”.
